Measured values published in patent publication EP2607478A1, “Phenanthroline treated MSC” (Universiteit Twente, priority 2011, dated 2013).

System: MSCs
Assay: Whole genome expression analysis (Illumina microarray) of treated MSCs
Type: cell-based, Human
Conditions: DFO versus Bas
Experimental: MSCs were seeded in T25 flasks at 5000 cells/cm^2 and allowed to attach overnight in proliferation medium. […] After 48 hours, RNA was isolated as described above. From 500 ng of RNA, cRNA was synthesized using the Illumina TotalPrep RNA amplification Kit (Ambion), according to the manufacturer's protocol and the quality of RNA and cRNA was verified on a Bioanalyzer 2100 (Agilent). Microarrays were performed using Illumina HT-12 v4 expression Beadchips, according to the manufacturer's protocol. Briefly, 750 ng of cRNA was hybridized on the array overnight after which the array was washed and blocked. Then, by addition of streptavidin Cy-3 a fluorescent signal was developed. Arrays were scanned on an Illumina iScan reader and raw intensity values were background corrected in GenomeStudio (Illumina). Further data processing and statistical testing were performed with R and Bioconductor statistical software (www.bioconductor.org), using package lumi. Raw intensity values were transformed using variance stabilization and a quantile normalization was performed. A linear modelling approach with empirical Bayesian methods, as implemented in Limma package (54), was applied for differential expression analysis of the resulting probe-level expression values. A gene list, containing only those genes with an absolute 1.5-fold change between different treatments, was uploaded to Ingenuity Pathway Analysis (IPA) software and used for core analysis. Pathways or networks with a p-value of 0.05 were considered statistically significant.

CC(=O)N(O)CCCCCNC(=O)CCC(=O)N(O)CCCCCNC(=O)CCC(=O)N(O)CCCCCN [DFO, reference compound]
logFC(D142_ DFO - D142_BAS) KCNK2 (ProbeID ILMN_1765990): -2,07 | logFC(D142_ DFO - D142_BAS) C10orf10 (ProbeID ILMN_1767556): 3,15 | logFC(D142_ DFO - D142_BAS) BTG2 (ProbeID ILMN_1770085): 2,57 | logFC(D142_ DFO - D142_BAS) KRT34 (ProbeID ILMN_1770228): 3,81 | logFC(D142_ DFO - D142_BAS) CNN2 (ProbeID ILMN_1770290): -2,29 | logFC(D142_ DFO - D142_BAS) ANGPTL2 (ProbeID ILMN_1772612): -2,31 | logFC(D142_ DFO - D142_BAS) ZNF395 (ProbeID ILMN_1772876): 2,75 | logFC(D142_ DFO - D142_BAS) GAS1 (ProbeID ILMN_1772910): -3,12 | logFC(D142_ DFO - D142_BAS) DKK1 (ProbeID ILMN_1773337): 2,79 | logFC(D142_ DFO - D142_BAS) FBLN2 (ProbeID ILMN_1774602): -2,23 | logFC(D142_ DFO - D142_BAS) SLC2A3 (ProbeID ILMN_1775708): 2,53 | logFC(D142_ DFO - D142_BAS) KCTD11 (ProbeID ILMN_1777513): 2,12 | logFC(D142_ DFO - D142_BAS) LOC644774 (ProbeID ILMN_1779258): 2,61 | logFC(D142_ DFO - D142_BAS) CPA4 (ProbeID ILMN_1784294): 5,59 | logFC(D142_ DFO - D142_BAS) SPOCD1 (ProbeID ILMN_1784948): -2,53 | logFC(D142_ DFO - D142_BAS) PRKD1 (ProbeID ILMN_1785891): -2,05 | logFC(D142_ DFO - D142_BAS) UHRF1 (ProbeID ILMN_1786065): -2,34 | logFC(D142_ DFO - D142_BAS) CDKN1A (ProbeID ILMN_1787212): 2,78 | logFC(D142_ DFO - D142_BAS) TRIB3 (ProbeID ILMN_1787815): 3,16 | logFC(D142_ DFO - D142_BAS) COL11A1 (ProbeID ILMN_1789507): -2,55 | logFC(D142_ DFO - D142_BAS) GBE1 (ProbeID ILMN_1789702): 2,29 | logFC(D142_ DFO - D142_BAS) PRRX2 (ProbeID ILMN_1790338): -2,49 | logFC(D142_ DFO - D142_BAS) LUM (ProbeID ILMN_1790529): -3,27 | logFC(D142_ DFO - D142_BAS) CXCL12 (ProbeID ILMN_1791447): -2,57 | logFC(D142_ DFO - D142_BAS) DPYSL4 (ProbeID ILMN_1792356): 3,05 | logFC(D142_ DFO - D142_BAS) TMEM158 (ProbeID ILMN_1792455): 2,58 | logFC(D142_ DFO - D142_BAS) SERTAD1 (ProbeID ILMN_1794017): 2,25 | logFC(D142_ DFO - D142_BAS) CAMK2N1 (ProbeID ILMN_1794863): 2,65 | logFC(D142_ DFO - D142_BAS) PTP4A2 (ProbeID ILMN_1795697): 2,22 | logFC(D142_ DFO - D142_BAS) ASNS (ProbeID ILMN_1796417): 2,93 | logFC(D142_ DFO - D142_BAS) HMGCS1 (ProbeID ILMN_1797728): -2,09 | logFC(D142_ DFO - D142_BAS) PTPRF (ProbeID ILMN_1798081): 2,28 | logFC(D142_ DFO - D142_BAS) AK3L1 (ProbeID ILMN_1798249): 2,66 | logFC(D142_ DFO - D142_BAS) PLIN2 (ProbeID ILMN_1801077): 2,94 | logFC(D142_ DFO - D142_BAS) FAM162A (ProbeID ILMN_1803647): 2,50 | logFC(D142_ DFO - D142_BAS) CXCL12 (ProbeID ILMN_1803825): -2,19 | logFC(D142_ DFO - D142_BAS) VEGFA (ProbeID ILMN_1803882): 3,15 | logFC(D142_ DFO - D142_BAS) FMO3 (ProbeID ILMN_1808657): -2,46 | logFC(D142_ DFO - D142_BAS) PGF (ProbeID ILMN_1809813): 2,55 | logFC(D142_ DFO - D142_BAS) NDRG1 (ProbeID ILMN_1809931): 3,57 | logFC(D142_ DFO - D142_BAS) SFRP4 (ProbeID ILMN_1810172): -2,03 | logFC(D142_ DFO - D142_BAS) FAM129A (ProbeID ILMN_1810725): 2,88 | logFC(D142_ DFO - D142_BAS) PDE5A (ProbeID ILMN_1810836): -2,08 | logFC(D142_ DFO - D142_BAS) LOC402221 (ProbeID ILMN_1811909): -2,22 | logFC(D142_ DFO - D142_BAS) FAM20A (ProbeID ILMN_1812091): -2,11 | logFC(D142_ DFO - D142_BAS) SOX18 (ProbeID ILMN_1812968): -2,09 | logFC(D142_ DFO - D142_BAS) FKSG30 (ProbeID ILMN_1814998): -2,25 | logFC(D142_ DFO - D142_BAS) (ProbeID ILMN_1843198 (no gene name printed)): 3,25 | logFC(D142_ DFO - D142_BAS) (ProbeID ILMN_1890614 (no gene name printed)): 3,41 | logFC(D142_ DFO - D142_BAS) SNORD13 (ProbeID ILMN_1892403): 2,51 | logFC(D142_ DFO - D142_BAS) GADD45A (ProbeID ILMN_2052208): 2,60 | logFC(D142_ DFO - D142_BAS) LDLR (ProbeID ILMN_2053415): -2,03 | logFC(D142_ DFO - D142_BAS) PTGS2 (ProbeID ILMN_2054297): 2,25 | logFC(D142_ DFO - D142_BAS) GAS1 (ProbeID ILMN_2062701): -2,07 | logFC(D142_ DFO - D142_BAS) PMAIP1 (ProbeID ILMN_2098446): 2,11 | logFC(D142_ DFO - D142_BAS) GOLGA8B (ProbeID ILMN_2103547): 2,12 | logFC(D142_ DFO - D142_BAS) EEF1A2 (ProbeID ILMN_2108735): 2,72 | logFC(D142_ DFO - D142_BAS) CTHRC1 (ProbeID ILMN_2117508): -2,46 | logFC(D142_ DFO - D142_BAS) HBEGF (ProbeID ILMN_2121408): 2,13 | logFC(D142_ DFO - D142_BAS) IGFBP5 (ProbeID ILMN_2132982): 2,53 | logFC(D142_ DFO - D142_BAS) PLIN2 (ProbeID ILMN_2138765): 2,74 | logFC(D142_ DFO - D142_BAS) HIST2H2AA3 (ProbeID ILMN_2144426): 2,07 | logFC(D142_ DFO - D142_BAS) GBP1 (ProbeID ILMN_2148785): -2,41 | logFC(D142_ DFO - D142_BAS) SERPINB2 (ProbeID ILMN_2150851): 3,06 | logFC(D142_ DFO - D142_BAS) SERPINB2 (ProbeID ILMN_2150856): 3,04 | logFC(D142_ DFO - D142_BAS) ALDH1B1 (ProbeID ILMN_2150894): -2,55 | logFC(D142_ DFO - D142_BAS) LUM (ProbeID ILMN_2167805): -2,01 | logFC(D142_ DFO - D142_BAS) PFKFB3 (ProbeID ILMN_2186061): 4,03 | logFC(D142_ DFO - D142_BAS) RRAD (ProbeID ILMN_2186137): 3,12 | logFC(D142_ DFO - D142_BAS) GDF15 (ProbeID ILMN_2188862): 6,31 | logFC(D142_ DFO - D142_BAS) HSPB7 (ProbeID ILMN_2200836): -2,12 | logFC(D142_ DFO - D142_BAS) TP53INP1 (ProbeID ILMN_2214197): 2,62 | logFC(D142_ DFO - D142_BAS) PGK1 (ProbeID ILMN_2216852): 2,75 | logFC(D142_ DFO - D142_BAS) KIFC1 (ProbeID ILMN_2222008): -2,05 | logFC(D142_ DFO - D142_BAS) BEX1 (ProbeID ILMN_2234697): -3,45 | logFC(D142_ DFO - D142_BAS) LEPR (ProbeID ILMN_2234956): -2,33 | logFC(D142_ DFO - D142_BAS) UBE2C (ProbeID ILMN_2301083): -2,01 | logFC(D142_ DFO - D142_BAS) VCAM1 (ProbeID ILMN_2307903): -3,16 | logFC(D142_ DFO - D142_BAS) MAFF (ProbeID ILMN_2322375): 2,07 | logFC(D142_ DFO - D142_BAS) PORCN (ProbeID ILMN_2337058): 2,69 | logFC(D142_ DFO - D142_BAS) AK3L1 (ProbeID ILMN_2338038): 2,28 | logFC(D142_ DFO - D142_BAS) FMO3 (ProbeID ILMN_2344283): -2,30 | logFC(D142_ DFO - D142_BAS) MKNK2 (ProbeID ILMN_2347068): 2,45 | logFC(D142_ DFO - D142_BAS) BIRC5 (ProbeID ILMN_2349459): -2,14 | logFC(D142_ DFO - D142_BAS) VLDLR (ProbeID ILMN_2361862): 3,17 | logFC(D142_ DFO - D142_BAS) ATF3 (ProbeID ILMN_2374865): 3,23 | logFC(D142_ DFO - D142_BAS) VEGFA (ProbeID ILMN_2375879): 3,40 | logFC(D142_ DFO - D142_BAS) KCNK2 (ProbeID ILMN_2376953): -2,07 | logFC(D142_ DFO - D142_BAS) ANGPTL4 (ProbeID ILMN_2386444): 2,64 | logFC(D142_ DFO - D142_BAS) IGFBP1 (ProbeID ILMN_2387385): 2,45 | logFC(D142_ DFO - D142_BAS) MTHFD2 (ProbeID ILMN_2405521): 2,84 | logFC(D142_ DFO - D142_BAS) PODXL (ProbeID ILMN_2413158): 2,92 | logFC(D142_ DFO - D142_BAS) LOC100133609 (ProbeID ILMN_3237270): 2,49 | logFC(D142_ DFO - D142_BAS) BEND5 (ProbeID ILMN_3237448): 2,61 | logFC(D142_ DFO - D142_BAS) HIST2H2AA4 (ProbeID ILMN_3242900): 2,11 | logFC(D142_ DFO - D142_BAS) LOC644350 (ProbeID ILMN_3248701): 2,60 | logFC(D142_ DFO - D142_BAS) LOC728934 (ProbeID ILMN_3248758): 2,47 | logFC(D142_ DFO - D142_BAS) LOC644237 (ProbeID ILMN_3283772): 2,17 | logFC(D142_ DFO - D142_BAS) LOC729779 (ProbeID ILMN_3305273): 3,12
